System: adult bed bugs (Cimex lectularius)
Experiment: Bed bug repellency, treated versus untreated filter paper halves in Petri dish chamber
Format: in vivo
Conditions: for Repellency (%) Treatment Group / bed bugs on Nootkatone treatment filter paper (count, of 50) / Repellency (summary of bedbug repellency): 0.1% BHT; for Corrected 0.25% nootkatone repellency / bed bugs on 0.25% Nootkatone-treated filter paper, average count (of 10) / Corrected 1% nootkatone repellency / bed bugs on 1% Nootkatone-treated filter paper, average count (of 10): 0.1% BHT in ethanol, dried paper; for Nootkatone Repellency / bed bugs on nootkatone-treated filter paper (count, of 50): 5% Nootkatone in acetone, 0.1% BHT (title; column head prints 10%); for Nootkatone Repellency (corrected for isopropanol control) / bed bugs on 10% Nootkatone-treated filter paper, average count of five trials (of 10): 10% nootkatone, 0.1% BHT in isopropanol
Protocol: A formulation, containing 10% nootkatone, 0.1% butylated hydroxytoluene (BHT) in isopropanol was tested for efficacy for repelling adult bed bugs (Cimex lectularius). Treatment chambers were created by cutting a circular hole in the bottom of 15-cm Petri dishes. A fine mesh nylon cloth was then glued to Petri dishes, covering the holes. The chambers were formed using the inverted Petri dishes with the screened bottoms serving as the tops and the lids forming the base of the chambers. The lids were secured with rubber bands.
Five semi-circular pieces of filter paper, with a diameter of 15 cm, were arranged so that they were evenly spaced on a sheet of aluminum foil. Equal amounts of 10% nootkatone solution, stored at ambient temperature and humidity, were applied to the filter papers until they were wet to the point of runoff. Five untreated semi-circular pieces were marked with the letter “c”, for control, on both sides in pencil or solvent resistant ink. One nootkatone-treated filter paper and one untreated filter paper were placed with the flat sides against each other, creating a full circle, in the lids of five 15-cm Petri dishes, serving as the treatment chambers described above, such that the entire surface of the lid was covered. Immediately after placing the filter paper semi-circles into the lid, 10 bed bugs, having received a blood meal no more than 7 days before, were placed onto the untreated piece of paper and covered with the ventilated base of the Petri dish. The containers of each replicate were then kept at ambient laboratory temperature and humidity for the duration of the study. The distribution of the bed bugs on the treated and untreated filter papers was recorded at 0.5, 1, 1.5, 2, and 24 hours after being placed in the containers. Observations were made in darkness with the aid of a red lens flashlight. Gloves and a dust mask were worn by the observer to reduce detection of the bed bugs and to minimize disturbance caused by the observer. Five additional treatment chambers were created as described above, except the treated filter paper was soaked with isopropyl alcohol (control treatment), instead of the 10% nootkatone solution. Bed bug distribution in the control chambers were recorded as described for the treatment condition.
The nootkatone treatment repellency was calculated from the following equation: R=[(C−T)/C]*100, where R is the % repellency, C is the fraction of bed bugs on the isopropanol-treated filter papers, and T is the fraction of bed bugs on the nootkatone-treated filter papers.
A formulation, containing 5% nootkatone, 0.1% butylated hydroxytoluene (BHT) in acetone was tested for efficacy for repelling adult bed bugs (Cimex lectularius) using the methods as described above.
The duration of 1% and 0.25% nootkatone […] repellent effects was evaluated in this example. Bed bug (Cimex lectularius) treatment chambers were created as described in part A above, except using 9-cm Petri dishes and semicircles of filter paper with a diameter of 9 cm. Five replicate semicircles of filter paper were treated with 1 ml 1.0% nootkatone, 0.1% BHT in ethanol; 0.25% nootkatone, 0.1% BHT in ethanol; or ethanol alone (control), and placed side by side with untreated filter papers (marked with a “c”) in Petri dishes so that the lid surfaces were completely covered as previously described in part A. Prior to addition of the bed bugs, the filter papers were confirmed to be completely dry and free of any residual ethanol odor.
Following chamber preparation, 10 bed bugs, having received a blood meal no more than 7 days prior, were added to each chamber on the untreated filter paper as described above. Distribution of the 10 bed bugs per chamber was recorded at 0.5, 1, 1.5, 2, and 24 hours following treatment (Day 1). At the end of 24 hours, the old bed bugs were removed from the Petri dish and 10 new bed bugs were added. […]

[1] = 0.01% nootkatone in acetone, Day 1, 0.5 hour
[2] = 0.01% nootkatone in acetone, Day 1, 1.5 hour
[3] = 0.01% nootkatone in acetone, Day 1, 2.0 hour
[4] = 0.01% nootkatone in acetone, Day 1, Average of time points
[5] = 0.01% nootkatone in acetone, Day 2, 0.5 hour
[6] = 0.01% nootkatone in acetone, Day 2, 1.0 hour
[7] = 0.01% nootkatone in acetone, Day 2, 1.5 hour
[8] = 0.01% nootkatone in acetone, Day 2, 2.0 hour
[9] = 0.01% nootkatone in acetone, Day 2, 24.0 hour
[10] = 0.01% nootkatone in acetone, Day 2, Average of time points
[11] = 0.10% nootkatone in acetone, Day 1, 1.0 hour
[12] = 0.10% nootkatone in acetone, Day 1, 1.5 hour
[13] = 0.10% nootkatone in acetone, Day 1, 24.0 hour
[14] = 0.10% nootkatone in acetone, Day 1, Average of time points
[15] = 0.10% nootkatone in acetone, Day 2, 0.5 hour
[16] = 0.10% nootkatone in acetone, Day 2, 1.0 hour
[17] = 0.10% nootkatone in acetone, Day 2, 1.5 hour
[18] = 0.10% nootkatone in acetone, Day 2, 2.0 hour
[19] = 0.10% nootkatone in acetone, Day 2, 24.0 hour
[20] = 0.10% nootkatone in acetone, Day 2, Average of time points
[21] = 0.50% nootkatone in acetone, Day 1, 1.0 hour
[22] = 0.50% nootkatone in acetone, Day 1, 1.5 hour
[23] = 0.50% nootkatone in acetone, Day 1, 2.0 hour
[24] = 0.50% nootkatone in acetone, Day 1, 24.0 hour
[25] = 0.50% nootkatone in acetone, Day 2, 0.5 hour
[26] = 0.50% nootkatone in acetone, Day 2, 1.5 hour
[27] = 0.50% nootkatone in acetone, Day 2, 2.0 hour
[28] = 0.50% nootkatone in acetone, Day 2, 24.0 hour

## C=C(C)[C@@H]1CCC2=CC(=O)C[C@@H](C)[C@]2(C)C1 [nootkatone, 4,4a,5,6,7,8-hexahydro-6-isopropenyl-4,4a-dimethyl-2(3H)-naphtalenone]
[1]
  Repellency (%) Treatment Group: 68.0%
  bed bugs on Nootkatone treatment filter paper (count, of 50): 16
0.01% nootkatone in acetone, Day 1, 1.0 hour
  bed bugs on Nootkatone treatment filter paper (count, of 50): 17
[2]
  Repellency (%) Treatment Group: 66.0%
  bed bugs on Nootkatone treatment filter paper (count, of 50): 17
[3]
  Repellency (%) Treatment Group: 72.0%
  bed bugs on Nootkatone treatment filter paper (count, of 50): 14
0.01% nootkatone in acetone, Day 1, 24.0 hour
  Repellency (%) Treatment Group: 58.0%
[4]
  Repellency (%) Treatment Group: 66.0%
  bed bugs on Nootkatone treatment filter paper (count, of 50): 17.0
[5]
  Repellency (%) Treatment Group: 82.0%
  bed bugs on Nootkatone treatment filter paper (count, of 50): 9
[6]
  Repellency (%) Treatment Group: 72.0%
  bed bugs on Nootkatone treatment filter paper (count, of 50): 14
[7]
  Repellency (%) Treatment Group: 62.0%
  bed bugs on Nootkatone treatment filter paper (count, of 50): 19
[8]
  Repellency (%) Treatment Group: 64.0%
  bed bugs on Nootkatone treatment filter paper (count, of 50): 18
[9]
  Repellency (%) Treatment Group: 62.0%
  bed bugs on Nootkatone treatment filter paper (count, of 50): 19
[10]
  Repellency (%) Treatment Group: 68.4%
  bed bugs on Nootkatone treatment filter paper (count, of 50): 15.8
0.10% nootkatone in acetone, Day 1, 0.5 hour
  bed bugs on Nootkatone treatment filter paper (count, of 50): 3
[11]
  Repellency (%) Treatment Group: 92.0%
  bed bugs on Nootkatone treatment filter paper (count, of 50): 4
[12]
  Repellency (%) Treatment Group: 90.0%
  bed bugs on Nootkatone treatment filter paper (count, of 50): 5
0.10% nootkatone in acetone, Day 1, 2.0 hour
  bed bugs on Nootkatone treatment filter paper (count, of 50): 3
[13]
  Repellency (%) Treatment Group: 98.0%
  bed bugs on Nootkatone treatment filter paper (count, of 50): 1
[14]
  Repellency (%) Treatment Group: 93.6%
  bed bugs on Nootkatone treatment filter paper (count, of 50): 3.2
[15]
  Repellency (%) Treatment Group: 72.0%
  bed bugs on Nootkatone treatment filter paper (count, of 50): 14
[16]
  Repellency (%) Treatment Group: 70.0%
  bed bugs on Nootkatone treatment filter paper (count, of 50): 15
[17]
  Repellency (%) Treatment Group: 74.0%
  bed bugs on Nootkatone treatment filter paper (count, of 50): 13
[18]
  Repellency (%) Treatment Group: 70.0%
  bed bugs on Nootkatone treatment filter paper (count, of 50): 15
[19]
  Repellency (%) Treatment Group: 82.0%
  bed bugs on Nootkatone treatment filter paper (count, of 50): 9
[20]
  Repellency (%) Treatment Group: 73.6%
  bed bugs on Nootkatone treatment filter paper (count, of 50): 13.2
0.1% nootkatone in acetone, day two
  bedbug repellency, in words: moderate (statistically significant) repellent
0.25% nootkatone in ethanol
  bedbug repellency, in words: not sufficient to repel bed bugs
Day 1
  Corrected 0.25% nootkatone repellency: 19%
  bed bugs on 0.25% Nootkatone-treated filter paper, average count (of 10): 2.68
  Corrected 1% nootkatone repellency: 93%
  bed bugs on 1% Nootkatone-treated filter paper, average count (of 10): 0.24
Day 2
  Corrected 0.25% nootkatone repellency: 23%
  bed bugs on 0.25% Nootkatone-treated filter paper, average count (of 10): 4.2
  Corrected 1% nootkatone repellency: 66%
  bed bugs on 1% Nootkatone-treated filter paper, average count (of 10): 1.84
Day 3
  Corrected 0.25% nootkatone repellency: 49%
  bed bugs on 0.25% Nootkatone-treated filter paper, average count (of 10): 2.32
  Corrected 1% nootkatone repellency: 81%
  bed bugs on 1% Nootkatone-treated filter paper, average count (of 10): 0.88
Day 4
  Corrected 0.25% nootkatone repellency: −14%
  bed bugs on 0.25% Nootkatone-treated filter paper, average count (of 10): 4
  Corrected 1% nootkatone repellency: 84%
  bed bugs on 1% Nootkatone-treated filter paper, average count (of 10): 0.56
[21]
  Repellency (%) Treatment Group: 100.0%
  bed bugs on Nootkatone treatment filter paper (count, of 50): 0
[22]
  Repellency (%) Treatment Group: 100.0%
  bed bugs on Nootkatone treatment filter paper (count, of 50): 0
[23]
  Repellency (%) Treatment Group: 100.0%
  bed bugs on Nootkatone treatment filter paper (count, of 50): 0
[24]
  Repellency (%) Treatment Group: 100.0%
  bed bugs on Nootkatone treatment filter paper (count, of 50): 0
0.50% nootkatone in acetone, Day 1, Average of time points
  Repellency (%) Treatment Group: 100.0%
[25]
  Repellency (%) Treatment Group: 86.0%
  bed bugs on Nootkatone treatment filter paper (count, of 50): 7
0.50% nootkatone in acetone, Day 2, 1.0 hour
  bed bugs on Nootkatone treatment filter paper (count, of 50): 6
[26]
  Repellency (%) Treatment Group: 94.0%
  bed bugs on Nootkatone treatment filter paper (count, of 50): 3
[27]
  Repellency (%) Treatment Group: 98.0%
  bed bugs on Nootkatone treatment filter paper (count, of 50): 1
[28]
  Repellency (%) Treatment Group: 92.0%
  bed bugs on Nootkatone treatment filter paper (count, of 50): 4
0.50% nootkatone in acetone, Day 2, Average of time points
  Repellency (%) Treatment Group: 91.6%
1% nootkatone in ethanol on filter paper
  duration of bed bug repellency following treatment: about 4 days
Day 5
  Corrected 1% nootkatone repellency: 68%
  bed bugs on 1% Nootkatone-treated filter paper, average count (of 10): 1.52
Day 6
  Corrected 1% nootkatone repellency: 20%
  bed bugs on 1% Nootkatone-treated filter paper, average count (of 10): 2.24
Day 7
  Corrected 1% nootkatone repellency: 63%
  bed bugs on 1% Nootkatone-treated filter paper, average count (of 10): 1.84
0.5 hr
  Nootkatone Repellency: 100.0%
  bed bugs on nootkatone-treated filter paper (count, of 50): 0
  Nootkatone Repellency (corrected for isopropanol control): 85.7%
  bed bugs on 10% Nootkatone-treated filter paper, average count of five trials (of 10): 0.4
1 hr
  Nootkatone Repellency: 100.0%
  bed bugs on nootkatone-treated filter paper (count, of 50): 0
  Nootkatone Repellency (corrected for isopropanol control): 100.0%
  bed bugs on 10% Nootkatone-treated filter paper, average count of five trials (of 10): 0
1.5 hr
  Nootkatone Repellency: 100.0%
  bed bugs on nootkatone-treated filter paper (count, of 50): 0
  Nootkatone Repellency (corrected for isopropanol control): 100.0%
  bed bugs on 10% Nootkatone-treated filter paper, average count of five trials (of 10): 0
2 hr
  Nootkatone Repellency: 100.0%
  bed bugs on nootkatone-treated filter paper (count, of 50): 0
  Nootkatone Repellency (corrected for isopropanol control): 100.0%
  bed bugs on 10% Nootkatone-treated filter paper, average count of five trials (of 10): 0
24 hr
  Nootkatone Repellency: 100.0%
  bed bugs on nootkatone-treated filter paper (count, of 50): 0
  Nootkatone Repellency (corrected for isopropanol control): 100.0%
  bed bugs on 10% Nootkatone-treated filter paper, average count of five trials (of 10): 0
Averages of time points
  Nootkatone Repellency: 100.0%
  bed bugs on nootkatone-treated filter paper (count, of 50): 0
5% nootkatone in acetone
  bed bug repellency compared with acetone alone, in words: repels bed bugs to a greater extent than that observed for acetone alone
10% nootkatone in isopropyl alcohol
  bed bug repellency compared with isopropanol alone, in words: repels bed bugs to a greater extent than that observed for isopropanol alone
Nootkatone 0.010% in acetone, Day 2
  Repellency (summary of bedbug repellency): 68.0%
Nootkatone 0.10% in acetone, Day 2
  Repellency (summary of bedbug repellency): 73.6%
Nootkatone 0.50% in acetone, Day 1
  Repellency (summary of bedbug repellency): 100.0%
Nootkatone 0.50% in acetone, Day 2
  Repellency (summary of bedbug repellency): 91.6%

— patent US20150250166A1, “NOOTKATONE AS AN INSECTICIDE AND INSECT REPELLENT” (ALLYLIX, INC., priority 2012, published 2015)
